Here are results for 13 compounds from PubChem BioAssay (NCI).

Among the test systems are 786-0 renal; HOP-62 NSCLC; HOP-92 NSCLC; K-562 leukemia; OVCAR-4 ovarian; SK-MEL-28 melanoma; SN12C renal; KM12 colon; NCI-H522 lung.
Assay in all cases: DTP human tumour cell line panel, 48 h

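Assay format: 96-well plates, 48-hour exposure. Here, GI50 denotes the concentration required for 50% inhibition of growth. TGI: total growth inhibition.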

`CC(C)c1ccc(C(c2ccc(OCC(=O)O)cc2)c2ccc(C(C)C)cc(=O)c2O)c(O)c(=O)c1`: the TGI in the experiment on 786-0 renal came to 22 µM; in the experiment on HOP-62 NSCLC it was 26.2 µM; in the experiment on HOP-92 NSCLC it was 0.956 µM; in the experiment with K-562 leukemia it was 35.5 µM; in the experiment on OVCAR-4 ovarian it was 12.8 µM; with SK-MEL-28 melanoma, 24.5 µM. Besides, the concentration for total growth inhibition (TGI) in the experiment with SN12C renal is 24.3 µM.
Regarding `CCCCOC(=O)NC(=O)c1cn(C2CCCCC2)c(=O)[nH]c1=O`, the concentration for total growth inhibition (TGI) in the experiment with 786-0 renal is 40.1 µM; in the experiment on HOP-62 NSCLC, 65.9 µM; with HOP-92 NSCLC, 55.1 µM; with K-562 leukemia, > 100 µM; in the experiment with KM12 colon, > 100 µM; in the experiment on NCI-H522 lung, > 100 µM. In addition, the results for the TGI with OVCAR-4 ovarian, with SK-MEL-28 melanoma and with SN12C renal were 48.6 µM, > 100 µM and > 100 µM, respectively.
`CC(=O)O.[Au].c1ccc([PH+](c2ccccc2)c2ccccc2)cc1`: the GI50 with 786-0 renal was 1.67 µM; in the experiment with HOP-62 NSCLC, 13.7 µM; in the experiment with HOP-92 NSCLC it was 3.02 µM; with KM12 colon it was 11.7 µM; in the experiment on NCI-H522 lung, 0.526 µM; with OVCAR-4 ovarian, 2 µM. Further, the figures for the GI50 in the experiment on SK-MEL-28 melanoma and in the experiment on SN12C renal were 1.63 µM and 2.94 µM, respectively. The total growth inhibition concentration (TGI) in the experiment on 786-0 renal turned out to be 3.27 µM; with HOP-62 NSCLC, 27.7 µM; in the experiment on HOP-92 NSCLC, 5.1 µM; with KM12 colon it was 39.8 µM; in the experiment with NCI-H522 lung it was 1.96 µM; with OVCAR-4 ovarian it was 5.02 µM. In addition, the values for the total growth inhibition concentration (TGI) with SK-MEL-28 melanoma and with SN12C renal were 3.66 µM and 8.85 µM, respectively.
Regarding `O=C(Nc1ccc(Cl)cc1Cl)C(=O)C(C(=O)c1ccncc1)C1OC(=O)c2ccccc21` (configuration not stated), the TGI with 786-0 renal, in the experiment on HOP-62 NSCLC, in the experiment with HOP-92 NSCLC, with K-562 leukemia, in the experiment with KM12 colon and in the experiment with NCI-H522 lung was > 100 µM each time. Also, the concentration for total growth inhibition (TGI) with OVCAR-4 ovarian, in the experiment with SK-MEL-28 melanoma and in the experiment with SN12C renal was > 100 µM throughout.
As for `CC(C)c1cc2c(O)c(c1)Cc1cc(C(C)C)cc(c1O)Cc1cc(C(C)C)cc(c1O)Cc1cc(C(C)C)cc(c1O)C2`, the total growth inhibition concentration (TGI) with 786-0 renal, in the experiment with HOP-62 NSCLC, in the experiment with HOP-92 NSCLC, in the experiment with K-562 leukemia, in the experiment with KM12 colon and in the experiment on NCI-H522 lung was > 100 µM each time. In addition, in the experiment with OVCAR-4 ovarian, the TGI was > 100 µM.
In the case of `Cc1ccc(NC(=O)c2sc3nc(C)c(C(O)c4ccccc4)cc3c2N)cc1` (configuration not stated), the GI50 in the experiment on 786-0 renal was 1.02 µM; in the experiment with HOP-62 NSCLC it was 0.716 µM; with HOP-92 NSCLC it was 0.857 µM; in the experiment on K-562 leukemia, 0.333 µM; with KM12 colon, 0.452 µM; in the experiment with NCI-H522 lung it was 0.617 µM. Also, the GI50 in the experiment with OVCAR-4 ovarian is 1.55 µM; in the experiment with SK-MEL-28 melanoma, 0.772 µM; with SN12C renal, 0.664 µM. The total growth inhibition concentration (TGI) in the experiment with 786-0 renal was 18.8 µM; in the experiment with HOP-62 NSCLC, 23.6 µM; with HOP-92 NSCLC it was 20.4 µM; in the experiment with K-562 leukemia it was > 100 µM; in the experiment with KM12 colon, > 61.9 µM; in the experiment on NCI-H522 lung, > 48.7 µM. The results for the TGI in the experiment on OVCAR-4 ovarian, with SK-MEL-28 melanoma and in the experiment on SN12C renal were 47 µM, > 100 µM and 25.9 µM, respectively.
For `CC(=O)N1C/C(=C\c2ccc(N(C)C)cc2)C(=O)/C(=C/c2ccc(N(C)C)cc2)C1`, the total growth inhibition concentration (TGI) with 786-0 renal, with HOP-62 NSCLC, in the experiment with HOP-92 NSCLC, in the experiment on K-562 leukemia, in the experiment with KM12 colon and in the experiment on OVCAR-4 ovarian was > 100 µM throughout. Besides, the TGI with SK-MEL-28 melanoma and in the experiment on SN12C renal was > 100 µM each time.
`COC(=O)c1cc(C)c(C)c2c1NC(=O)CNC2=O`: the total growth inhibition concentration (TGI) in the experiment on 786-0 renal, with HOP-62 NSCLC, with K-562 leukemia, in the experiment with KM12 colon, in the experiment with OVCAR-4 ovarian and in the experiment on SK-MEL-28 melanoma was > 100 µM each time. In the experiment with SN12C renal, the TGI was > 100 µM.
On to `COC(C(O)c1ccc2c(c1)OCO2)P(=O)(c1ccccc1)c1ccccc1` (configuration not stated), for which the concentration for total growth inhibition (TGI) in the experiment with 786-0 renal, in the experiment with HOP-62 NSCLC, in the experiment on HOP-92 NSCLC, with K-562 leukemia, in the experiment on KM12 colon and with NCI-H522 lung was > 100 µM throughout. For the same compound, the concentration for total growth inhibition (TGI) is 30.9 µM in the experiment on OVCAR-4 ovarian, > 100 µM in the experiment with SK-MEL-28 melanoma and > 100 µM in the experiment on SN12C renal.
For `Fc1ccc(C2SCc3nc4ccccc4n32)cc1Cl` (configuration not stated), the concentration for total growth inhibition (TGI) is > 100 µM in the experiment with 786-0 renal; 55.9 µM with HOP-62 NSCLC; 30.1 µM in the experiment on HOP-92 NSCLC; 55.9 µM in the experiment on K-562 leukemia; 39.8 µM in the experiment on KM12 colon; 35.2 µM with NCI-H522 lung. The TGI is > 100 µM in the experiment with OVCAR-4 ovarian, 61.2 µM in the experiment with SK-MEL-28 melanoma and 35.7 µM in the experiment with SN12C renal.
For the compound `Cc1ccc(-c2cc(=O)c3cc(C)c(C)c(C(=O)O)c3o2)cc1C`, the TGI with 786-0 renal, in the experiment on HOP-62 NSCLC, in the experiment on HOP-92 NSCLC, in the experiment with K-562 leukemia, with KM12 colon and in the experiment on NCI-H522 lung was > 100 µM each time. Moreover, the TGI with OVCAR-4 ovarian, with SK-MEL-28 melanoma and in the experiment with SN12C renal was > 100 µM in each case.
On to `CCc1ccc(Nc2ccc([N+](=O)[O-])cc2[N+](=O)[O-])cc1`, for which the TGI with 786-0 renal, in the experiment on HOP-62 NSCLC, in the experiment on K-562 leukemia, in the experiment with KM12 colon, in the experiment with OVCAR-4 ovarian and with SK-MEL-28 melanoma was > 100 µM throughout.
On to `c1cc[c]([Pb]([c]2ccccc2)[c]2ccccc2)cc1`, for which the GI50 with 786-0 renal was 11.4 µM; in the experiment with HOP-62 NSCLC it was 36.9 µM; in the experiment on HOP-92 NSCLC, 10.7 µM; in the experiment on K-562 leukemia, 11 µM; in the experiment with KM12 colon it was 23.4 µM; with NCI-H522 lung it was 2.53 µM. Moreover, the GI50 in the experiment with OVCAR-4 ovarian was 22 µM; with SK-MEL-28 melanoma, 16.5 µM; with SN12C renal it was 8.17 µM. For the same compound, the TGI with 786-0 renal was 33.2 µM; with HOP-62 NSCLC it was 79.3 µM; with HOP-92 NSCLC, 47.8 µM; with K-562 leukemia, 61.4 µM; in the experiment on KM12 colon, > 100 µM; with NCI-H522 lung it was 15.1 µM. The TGI was > 100 µM in the experiment on OVCAR-4 ovarian, 36.6 µM with SK-MEL-28 melanoma and 22.3 µM in the experiment with SN12C renal.

The term TGI denotes the concentration at which net growth stops. As usually defined, the GI50 is the concentration that inhibits growth by half.
